For three molecules, IC50 and Ki results are on record in ChEMBL document CHEMBL1127549, “Synthesis and delta-opioid receptor antagonist activity of a naltrindole analogue with a regioisomeric indole moiety” (J Med Chem, 1994).

The target in assay [1] is Delta-type opioid receptor (Mus musculus, UniProt P32300). Description: Antagonist activity against delta-opioid receptor in mouse vas deferens in the presence of DADLE. It counts as functional, tissue-based.
In assay [2] the target is T1, Kappa-type opioid receptor (Cavia porcellus, UniProt P41144). Description: Binding affinity against kappa-opioid receptor in guinea pig brain membranes. It counts as cell membranes, Membrane.
T1 sequence (P41144 whole entry): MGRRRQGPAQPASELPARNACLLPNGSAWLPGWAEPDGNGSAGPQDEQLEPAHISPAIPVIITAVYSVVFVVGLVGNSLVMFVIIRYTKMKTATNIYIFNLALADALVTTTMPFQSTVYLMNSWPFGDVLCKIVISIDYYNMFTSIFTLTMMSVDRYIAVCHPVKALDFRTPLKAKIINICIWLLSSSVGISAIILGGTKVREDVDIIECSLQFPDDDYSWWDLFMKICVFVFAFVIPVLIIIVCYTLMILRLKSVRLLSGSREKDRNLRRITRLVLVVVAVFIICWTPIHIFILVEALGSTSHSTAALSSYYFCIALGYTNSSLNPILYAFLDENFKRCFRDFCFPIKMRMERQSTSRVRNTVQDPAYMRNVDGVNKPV
In assay [3] the target is T2, Mu-type opioid receptor (Cavia porcellus, UniProt P97266). The assay can be described thus: Binding affinity against mu-opioid receptor in guinea pig brain membranes. It counts as cell membranes, Membrane.
T2 sequence (P97266 whole entry): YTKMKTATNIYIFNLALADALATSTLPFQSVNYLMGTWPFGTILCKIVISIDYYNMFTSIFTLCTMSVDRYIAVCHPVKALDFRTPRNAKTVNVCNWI
The target in assay [4] is T1, Kappa-type opioid receptor. The assay can be described thus: Antagonist activity against kappa-opioid receptor in guinea pig ileum in the presence of ethylketazocine. It counts as functional, tissue-based.
The target of assay [5] is T2, Mu-type opioid receptor. Description: Antagonist activity against mu-opioid receptor in guinea pig ileum in the presence of morphine. It counts as functional, tissue-based.

Chain of Delta-type opioid receptor (P32300 whole entry): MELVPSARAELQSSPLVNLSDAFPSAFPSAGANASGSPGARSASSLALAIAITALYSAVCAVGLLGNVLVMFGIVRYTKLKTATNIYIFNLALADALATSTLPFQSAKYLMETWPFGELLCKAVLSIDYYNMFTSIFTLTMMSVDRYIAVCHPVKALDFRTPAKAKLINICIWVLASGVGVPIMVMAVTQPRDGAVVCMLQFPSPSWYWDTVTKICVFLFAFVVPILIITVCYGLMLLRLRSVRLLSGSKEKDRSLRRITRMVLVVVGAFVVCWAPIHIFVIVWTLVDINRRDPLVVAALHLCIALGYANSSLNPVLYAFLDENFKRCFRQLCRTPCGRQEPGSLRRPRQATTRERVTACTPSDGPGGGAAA

Broadly, the IC50 is the point on the concentration scale where inhibition reaches its midpoint. In general, Ki refers to the equilibrium dissociation constant of an inhibitor or competing ligand from its target. High values mean weaker binding, low ones tighter binding. Consider `Oc1ccc2c3c1O[C@H]1Cc4c([nH]c5ccccc45)[C@H]4[C@@H](C2)N(CC2CC2)CC[C@]314`, for which the IC50 in assay [1] is 8.2 µM. In addition, the Ki in assay [2] turned out to be 0.033 µM; in assay [3] it was 0.0049 µM.
With `CN1CC[C@]23c4c5ccc(O)c4O[C@H]2Cc2c([nH]c4ccccc24)[C@H]3[C@H]1C5`, the IC50 in assay [4] worked out at 0.99 µM; in assay [1] it was 1 µM; in assay [5] it was 0.92 µM.
In the same order, the values of `Oc1ccc2c3c1O[C@H]1c4[nH]c5ccccc5c4C[C@@]4(O)[C@@H](C2)N(CC2CC2)CC[C@]314` [NALTRINDOLE] are 2 µM, 459 µM and 11.2 µM.
